Tests used:
melanoma cells [1] = test: Apoptosis by flow cytometry (AnnexinV-APC); type: cell-based, human; settings: IC50 concentrations, Annexin V-APC
Procedure: (§1) After 48h of incubation, cells were rinsed and incubated with AnnexinV-APC (BD Biosciences). Cell proliferation and apoptosis were detected on a BD LSRFortessaTM Flow Cytometer. Data were analyzed with FlowJo software. To define slow proliferating or apoptotic cells: it was considered that slow proliferating cells represented the 30% of cells with the highest concentration of CellTrace Violet signal in the DMSO control. […] For apoptotic cells, it was considered the 20% of cells with the highest signal of AnnexinV-APC in the DMSO control.

[2] = tested on: melanoma cell cultures or cell lines; test: Clonogenic assay; type: cell-based, human; settings: 48h at IC50 concentrations, then 10 days without drug
Procedure: Based on the cell viability assays conducted above, the efficacy of lurbinectedin, PM14 or Compound IA on melanoma cell proliferation was investigated. Initially, a clonogenic assay was performed. Cells were drug-treated at IC50 concentrations during 48h before seeding 1×10^3 or 2×10^3 cells in 6-well plates without drug, wherein they grew for 10 days to allow for colony formation. Afterwards, cells were fixed for 10min with 4% formaldehyde solution, washed once with PBS and stained with Crystal Violet solution 0.2% for 15 min. The wells were finally washed twice with deionized water, air dried, scanned and analyzed with Fiji software to count the number of colonies.

Hermes3A = test: Cell viability assay (PrestoBlue), 72h; settings: for IC50: Homo sapiens, Melanocyte, 72 h
Procedure: (§3) Cells were grown at 37°C in 5% CO2 (10% for Hermes 3A) and were regularly checked for mycoplasma contamination. […] Melanoma IGR cell lines (IGR37 and IGR39) were grown in RPMI w/o HEPES (Gibco, Invitrogen) supplemented with 15% FCS and gentamycin.
(§4) To determine the IC50 (half maximal inhibitory concentration) of these cells to various inhibitors, cell viability assays were performed.
(§5) After 72h of treatment with different concentrations of the compounds, cells were treated with PrestoBlue reagent according to the manufacturer's instructions. The absorbance per well was measured with a Cellinsight CX5 microplate reader. Data were analyzed using Prism9 statistical software.

MM074 melanospheres [3] = test: Melanosphere viability (CellTiterGlo); type: cell-based, human; settings: 72h, doses equivalent to 5×IC50
Procedure: (§2) MM074 proliferative/differentiated cell line were seeded (5×10^4 cells) in ultra-low attachment hydrogel-layered 96 well plates in KO DMEM medium supplemented with 20% KSR, AANE, 2 mM Glutamax, Penicillin/Streptomycin and 100 uM Beta-mercaptoethanol. To allow for melanosphere formation, cells were left to grow for 4 days before drug treatment.
To analyze melanosphere viability after drug treatment, cells were treated with CellTiterGlo reagent (Promega) according to the manufacturer's instructions. Luminescence signals were measured with a Centro XS LB 960 microplate reader (Berthold).

MM029 = test: Cell viability assay (PrestoBlue), 72h; settings: Homo sapiens
Procedure: as §3, §4, §5

MM074 melanospheres [4] = test: Melanosphere apoptosis (AnnexinV-APC / propidium iodide); type: cell-based, human; settings: 72h
Procedure: as §2
For apoptosis assays with 3D-grown melanoma cells, TrypLe Select 10x reagent (Gibco) was used to dissociate melanospheres to obtain single-cell suspensions. These cells were incubated with AnnexinV-APC (Biolegend) and Propidium Iodide (PI, Biolegend). With bivariant dot plots, it was distinguished between viable (AnnexinV-/PI-), early apoptotic (AnnexinV+/PI-), late apoptotic (AnnexinV+/PI+) and necrotic cells (AnnexinV-/PI+).

SKMEL-28 = test: Cell viability assay (PrestoBlue), 72h; settings: Homo sapiens, SK-MEL-28, 72 h
Procedure: (§6) Cells were grown at 37°C in 5% CO2 (10% for Hermes 3A) and were regularly checked for mycoplasma contamination. […] Melanoma cell lines 501mel and SKmel28 were grown in RPMI w/o HEPES (Gibco, Invitrogen) supplemented with 10% FCS and gentamycin. Vemurafenib-resistant cells (501melVemuR and MM074VemuR) were additionally supplemented with 1.5 µM of vemurafenib. Melanoma IGR cell lines (IGR37 and IGR39) were grown in RPMI w/o HEPES (Gibco, Invitrogen) supplemented with 15% FCS and gentamycin.
as §4, §5

IGR37 [5] = test: Cell viability assay (PrestoBlue), 72h, last line of Table 2; settings: Homo sapiens, IGR-37, 72 h
Procedure: as §3, §4, §5

all melanoma cells = test: Cell viability assay (PrestoBlue), summary over all melanoma cells; type: cell-based; settings: Homo sapiens, read-out: IC50 values
501mel = test: Cell viability assay (PrestoBlue), 72h; settings: Homo sapiens
Procedure: as §6, §4, §5

MM047 = test: Cell viability assay (PrestoBlue), 72h; settings: Homo sapiens
Procedure: as §3, §4, §5

MM011 = test: Cell viability assay (PrestoBlue), 72h; settings: Homo sapiens
Procedure: as §6, §4, §5

MM074 = test: Cell viability assay (PrestoBlue), 72h; settings: Homo sapiens
Procedure: as §6, §4, §5

MM117 = test: Cell viability assay (PrestoBlue), 72h; settings: Homo sapiens
Procedure: as §6, §4, §5

MM099 = test: Cell viability assay (PrestoBlue), 72h; settings: Homo sapiens
Procedure: as §3, §4, §5

melanoma cells 501mel = test: Cell cycle analysis by flow cytometry (PI); type: cell-based, human; settings: IC50 concentrations
Procedure: For cell cycle analysis, 2×10^6 cells were seeded in 6 well plates. […] After 2 washes with cold PBS, cells were incubated with RNAse A and PI for 1h in the dark, before being analyzed on a BD LSRFortessaTM Flow Cytometer. Data were analysed with FlowJo software.

501mel^VemuR = test: Cell viability assay (PrestoBlue), 72h; settings: Homo sapiens
Procedure: (§7) Cells were grown at 37°C in 5% CO2 (10% for Hermes 3A) and were regularly checked for mycoplasma contamination. MM patient-derived short-term melanoma cultures (MM011, MM074, MM117, MM029, MM047, MM099) were grown in HAM-F10 (Gibco, Invitrogen) supplemented with 10% Fetal Calf Serum (FCS), 25 mM HEPES, 5.2 mM GLUTAMAX and penicillin-streptomycin. Melanoma cell lines 501mel and SKmel28 were grown in RPMI w/o HEPES (Gibco, Invitrogen) supplemented with 10% FCS and gentamycin. Vemurafenib-resistant cells (501melVemuR and MM074VemuR) were additionally supplemented with 1.5 µM of vemurafenib. Melanoma IGR cell lines (IGR37 and IGR39) were grown in RPMI w/o HEPES (Gibco, Invitrogen) supplemented with 15% FCS and gentamycin.
as §4, §5

MM074^VemuR = test: Cell viability assay (PrestoBlue), 72h; settings: Homo sapiens
Procedure: as §7, §4, §5

IGR37 [6] = test: Cell viability assay (PrestoBlue), 72h; settings: Homo sapiens, IGR-37, 72 h
Procedure: as §6, §4, §5

melanoma cells [7] = test: Cell proliferation by CellTrace Violet flow cytometry; type: cell-based, human; settings: IC50 concentrations, compared to DMSO
Procedure: as §1

[8] = tested on: RPB1 (RNA pol II elongation subunit); test: Immunoblotting of RPB1 in 501mel; type: cell-based, human; settings: 24h at 5×IC50
Procedure: Cells were washed once with cold PBS, rinsed with a cell scraper, pelleted and resuspended in LSDB 0.5M buffer (0.5M KCI, 50mM Tris HCl pH 7.9, 20% Glycerol, 1% NP40, 1mM DTT, PIC). Afterwards cells were fully disrupted with 3 cycles of heat shock in liquid nitrogen and 37°C water bath and centrifugated 15min at 14,000rpm to pellet cell debris. Ten micrograms of extract were loaded on SDS-PAGE before transfer to nitro-cellulose membranes and immunoblotting.

IC50 (SKMEL-28)	IC50 (MM117)	SMILES	IC50 (Hermes3A)	cell viability in 3D culture (MM074 melanospheres [3])	IC50 (MM029)	IC50 (IGR37 [5])	IC50 (501mel)	IC50 (MM047)	IC50 (MM011)	IC50 (MM074)	IC50 (MM099)	IC50 (501mel^VemuR)	IC50 (MM074^VemuR)	IC50 (IGR37 [6])	other results
1 nM	> 50 nM	CC(C)(C)c1nc(-c2cccc(NS(=O)(=O)c3c(F)cccc3F)c2F)c(-c2ccnc(N)n2)s1 [dabrafenib]	> 50 nM	unable to reduce cell viability	> 50 nM	> 50 nM	> 50 nM	> 50 nM	> 50 nM	4.68 nM	> 50 nM	> 50 nM	> 50 nM	25.3 nM	
5.12 nM	10.2 nM	CC(=O)Nc1cccc(-n2c(=O)n(C3CC3)c(=O)c3c(Nc4ccc(I)cc4F)n(C)c(=O)c(C)c32)c1 [trametinib]	> 50 nM		> 50 nM	> 50 nM	3 nM	> 50 nM	> 50 nM	0.51 nM	> 50 nM	> 50 nM	4.65 nM	0.53 nM	
> 10000 nM	488 nM	CCCS(=O)(=O)Nc1ccc(F)c(C(=O)c2c[nH]c3ncc(-c4ccc(Cl)cc4)cc23)c1F [vemurafenib]	> 10000 nM		> 10000 nM	> 10000 nM	2440 nM	> 10000 nM	> 10000 nM	225 nM	> 10000 nM	> 10000 nM	> 10000 nM	517 nM	

SMILES	IC50 (SKMEL-28)	IC50 (MM117)	IC50 (Hermes3A)	cell viability in 3D culture (MM074 melanospheres [3])	IC50 (MM029)	IC50 (IGR37 [5])	IC50 (501mel)	IC50 (MM047)	IC50 (MM011)	IC50 (MM074)	IC50 (MM099)	IC50 (501mel^VemuR)	IC50 (MM074^VemuR)	IC50 (IGR37 [6])	other results
COc1ccc2[nH]c3c(c2c1)CCN[C@]31CS[C@@H]2c3c(OC(C)=O)c(C)c4c(c3[C@H](COC1=O)N1[C@@H]2[C@H]2c3c(cc(C)c(OC)c3O)C[C@@H]([C@@H]1O)N2C)OCO4 [lurbinectedin]	1.17 nM	0.3 nM	2.67 nM	significant cytotoxic effects	1.28 nM	0.41 nM	0.37 nM	0.45 nM	0.47 nM	1.06 nM	0.73 nM	1.07 nM	1.36 nM	0.5 nM	apoptosis (melanoma cells [1]): induction of apoptosis; colony formation (number of colonies) [2]: significant impact; sensitivity of non-cancerous Hermes3A immortalized melanocytes compared with the melanoma cells (Hermes3A; Hermes3A versus melanoma cells): less sensitive; late apoptotic cells positive for Annexin V and propidium iodide (MM074 melanospheres [4]): substantial population of late apoptotic cells; IC50 (all melanoma cells): 0.3 to 4.73 nM; cell cycle progression (melanoma cells 501mel): notable blockade; melanoma cell proliferation (melanoma cells [7]): significant inhibition; RPB1 (RNA pol II elongation subunit) degradation [8]: minimal
